Source: patent US12377035B2, “Peptides for inhibiting cholinergic calcitonin gene-related peptide (CGRP) and acetylcholine (ACH) release or inhibiting sensitization-mediated by TRPV1-mediated excitability in sensory neurons and methods of use thereof” (AZIENDE CHIMICHE RIUNITE ANGELINI FRANCESCO—A.C.R.A.F. …, priority 2018, dated 2025)
Residues, ends and D or L forms follow the SMILES beside them. *: point of attachment. Palmitoyl = CCCCCCCCCCCCCCCC(=O)*

Columns and labels:
Assay type in all cases: cell-based
[1] = test system: CGRP induced-release on peptidergic sensory neurons (dorsal root ganglia); test: Inhibition of capsaicin-induced CGRP release on cultured sensory neurons (CGRP EIA); settings: 1 hour, 1 μM capsaicin 10 min
Procedure: The induction of the release of calcitonin-gene related peptide (CGRP) with capsaicin enables direct measurement of neuronal exocytosis (Meng J. et al., J. Cell. Sci. (2007) 15; 120(Pt 16):2864-74, and Meng J. et al., Mol. Neurobiol. (2014); 50(2):574-88).
The tested peptides were evaluated by measuring their capability of inhibiting CGRP induced-release on peptidergic sensory neurons. Dorsal root ganglia were seeded (50.000 cells/well) in a 96-well plate previously coated with poly-L-lysine and laminin. After 48 hours seeding, cells were incubated with Hank's Balanced salt solution containing peptides of invention at 20, 50 or 100 μM for 1 hour. Next, cells were stimulated for 10 min with 1 μM capsaicin at 37° C. Then, CGRP content was determined in supernatants using colorimetric based CGRP EIA (Spi-Bio Inc) following manufacturer's instructions. Absorbance measurements (405 nm) were standardized with regard to the maximum signal detected with capsaicin stimulation in vehicle treated cells. Inhibition values of CGRP release were calculated as percentages by considering maximum signal to capsaicin-induced release and minimum as non-stimulated cells. Table D details inhibition values of […] obtained for the peptides of invention.

[2] = test system: acetylcholine release, human neuroblastoma cell line differentiated to cholinergic neuronal phenotype; test: Inhibition of KCl-induced acetylcholine release in a neuroblastoma cell line (Amplex Red); settings: 50 mM KCl
Procedure: To determine the compound of the invention effects on acetylcholine release, a human neuroblastoma cell line (50.000 cells/well) was used. Cells were differentiated to cholinergic neuronal phenotype for 4 days. Then, cells were pre-incubated for 60 minutes with the compounds (between 0.1 and 100 μM) as acetyl- or palmitoyl-form and conjugated with trifluoroacetate (TFA) or acetate salt. Afterwards, acetylcholine release was induced by membrane depolarization evoked by 15 minutes incubation with 50 mM KCl. Acetylcholine level in supernatants was quantified by using Amplex® Red Acetylcholine Assay Kit (Thermofisher) following manufacturer's instructions. […] Fluorescence (Ex 530 nm/Em 590 nm) was measured in FluorStar equipment. Acetylcholine content was normalized to the total protein content using BCA assay (Pierce) following manufacturer's instructions. Fluorescence measurements were normalized to the maximum signal detected with KCl stimulation in vehicle treated cells. Vesicle exocytosis disruption by the compounds of the invention lead to a decrease of acetylcholine release (Table E).

[3] = test system: human epidermal keratinocytes (HEKa); test: MTT cell viability assay on epidermal keratinocytes; settings: for % inhibition cell viability: HEKa, 24 hours; for effect on cell viability (in words): human epidermal keratinocytes, up to 200 μM; for effect on keratinocyte viability (in words): assessed below 50 μM
Procedure: (§1) This example evaluated effects of the peptides of invention on human epidermal keratinocytes and dermal fibroblasts. Cell viability was determined with the 3-(4,5-dimethyl-2-thiazolyl)-2,5-diphenyl-2H-tetrazolium bromide (MTT) assay. The MTT assay is a colorimetric reaction based on the capacity of the mitochondrial dehydrogenase enzyme to break and transform the tetrazolium rings of MTT. Epidermal keratinocytes (HEKa) were seeded in a previously coated 96 well-plate at 50-60% confluence in 100 μL of supplemented corresponding medium. Dermal fibroblasts (HDFa) were seeded in a 96 well-plate at 70% confluence in 100 μL supplemented medium. For both cell lines, 24 hours after seeding, medium was replaced by fresh supplemented medium containing peptides dissolved at concentration range between 0.1 and 200 μM. All test substances were incubated for 24 hours at 37° C. and 5% CO2. Afterwards, medium was replaced by 0.5 mg/ml of MTT solution for 4 hours in complete medium. Then, medium was carefully removed and 150 μL/well of DMSO were added to solubilize formazan crystals. Plate was protected from light, shaken for 60 seconds and optical density was measured at 570 nm with a reference filter of 620 nm. Table F details effects of peptides of invention on keratinocytes and fibroblasts cell viability expressed as percentage of inhibition.

[4] = test system: human dermal fibroblasts (HDFa); test: MTT cell viability assay on dermal fibroblasts; settings: for % inhibition cell viability: HDFa, 24 hours; for effect on cell viability (in words): dermal fibroblast, up to 200 μM
Procedure: as §1

Compound	% CGRP release inhibition ([1]; peptide 20 μM)	% CGRP release inhibition ([1]; peptide 100 μM)	% Ach release inhibition ([2]; TFA salt, 10 μM)	% Ach release inhibition ([2]; TFA salt, 50 μM)	% Ach release inhibition ([2]; TFA salt, 100 μM)	% inhibition cell viability ([3]; 1 μM)	% inhibition cell viability ([3]; 5 μM)	% inhibition cell viability ([3]; 10 μM)	% inhibition cell viability ([3]; 50 μM)	% inhibition cell viability ([3]; 100 μM)	% inhibition cell viability ([3]; 200 μM)	effect on cell viability (in words) [3]	% inhibition cell viability ([4]; 1 μM)	% inhibition cell viability ([4]; 5 μM)	% inhibition cell viability ([4]; 10 μM)	% inhibition cell viability ([4]; 50 μM)	% inhibition cell viability ([4]; 100 μM)	% inhibition cell viability ([4]; 200 μM)	effect on cell viability (in words) [4]	% Ach release inhibition ([2]; TFA salt, 5 μM)	further results
Ac-HYWRELQYR-NH2 [SEQ ID NO: 1 acetyl, HYWRELQYR]	10.1%	39.1%	87.9%	33.6%	65.9%	−1.4%	8.8%	1.7%	7.4%	6.2%	9.5%	did not modify cell viability	0.2%	9.7%	33%	3.9%	6.8%	2.9%	did not modify cell viability		% Ach release inhibition ([2]; Acetate salt, 1 μM): 27.9%; % Ach release inhibition ([2]; Acetate salt, 10 μM): 55.9%
Ac-WEQEFLRR-NH2 [SEQ ID NO: 5 acetyl, WEQEFLRR]			52.8%	51.5%	81.6%	−5.7%	0.8%	4.2%	4.3%	10.4%	23.7%	did not modify cell viability	9.3%	10.0%	12.1%	10.0%	15.0%	14.7%	did not modify cell viability		% Ach release inhibition ([2]; Acetate salt, 0.1 μM): around 40%; % Ach release inhibition ([2]; TFA salt, 0.1 μM): 19.0%; % Ach release inhibition ([2]; TFA salt, 1 μM): 22.0%
Ac-MQVWLRMWIDYRAT-NH2 [SEQ ID NO: 2 acetyl, MQVWLRMWIDYRAT]	49.3%	55.3%	78.8%			−1.2%	−1.8%	−0.5%	−4.6%	−0.7%	1.2%	did not modify cell viability	10.1%	12.3%	8.5%	1.4%	7.8%	24.6%	did not modify cell viability	76.2%	% Ach release inhibition ([2]; Acetate salt, 1 μM): 41.0%; % Ach release inhibition ([2]; Acetate salt, 10 μM): 55.8%; % Ach release inhibition ([2]; TFA salt, 20 μM): 10.9%
CCCCCCCCCCCCCCCC(=O)N[C@@H](CC(C)C)C(=O)N[C@@H](CCCNC(=N)N)C(=O)N[C@H](C(=O)N[C@@H](CCC(N)=O)C(=O)N[C@@H](CCSC)C(=O)N[C@H](C(=O)N[C@@H](CC(N)=O)C(=O)N[C@@H](CCSC)C(=O)N[C@@H](Cc1ccccc1)C(=O)N[C@@H](CC(C)C)C(N)=O)C(C)C)C(C)C [SEQ ID NO: 4 palmitoyl, LRVQMVNMFL] (Palmitoyl-LRVQMVNMFL-NH2)				83.0%		−7.6%	7.0%	18.0%	34.2%				34.2%	42.6%	40.9%	37.7%				26.4%	% inhibition cell viability ([3]; 0.1 μM): −6.2%; % inhibition cell viability ([3]; 0.5 μM): 1.0%; effect on keratinocyte viability (in words) [3]: did not modify keratinocyte viability; % inhibition cell viability ([4]; 0.1 μM): 15.2%; % inhibition cell viability ([4]; 0.5 μM): 26.9%
CCCCCCCCCCCCCCCC(=O)N[C@@H](CCSC)C(=O)N[C@@H](CCC(N)=O)C(=O)N[C@H](C(=O)N[C@@H](Cc1c[nH]c2ccccc12)C(=O)N[C@@H](CC(C)C)C(=O)N[C@@H](CCCNC(=N)N)C(=O)N[C@@H](CCSC)C(=O)N[C@@H](Cc1c[nH]c2ccccc12)C(=O)N[C@H](C(=O)N[C@@H](CC(=O)O)C(=O)N[C@@H](Cc1ccc(O)cc1)C(=O)N[C@@H](CCCNC(=N)N)C(=O)N[C@@H](C)C(=O)N[C@H](C(N)=O)[C@@H](C)O)[C@@H](C)CC)C(C)C [SEQ ID NO: 2 palmitoyl, MQVWLRMWIDYRAT] (Palmitoyl-MQVWLRMWIDYRAT-NH2)	35.5%		−35.1%	20.6%		25.6%	36.9%	36.5%	32.5%				45.8%	47.3%	47.1%	35.3%				−46.1%	% CGRP release inhibition ([1]; peptide 50 μM): 53.9%; % inhibition cell viability ([3]; 0.1 μM): 12.1%; % inhibition cell viability ([3]; 0.5 μM): 20.9%; % inhibition cell viability ([4]; 0.1 μM): 30.8%; % inhibition cell viability ([4]; 0.5 μM): 42.9%
Ac-LRVQMVNMFL-NH2 [SEQ ID NO: 4 acetyl, LRVQMVNMFL]	14.2%	77.4%	84.3%	58.9%	6.8%	13.6%	2.6%	6.0%	19.5%	31.6%	41.1%		14.5%	28.4%	37.1%	40.6%	41.5%	22.9%			% Ach release inhibition ([2]; Acetate salt, 0.1 μM): around 40%; effect on keratinocyte viability (in words) [3]: did not modify keratinocyte viability
CCCCCCCCCCCCCCCC(=O)N[C@@H](Cc1c[nH]c2ccccc12)C(=O)N[C@@H](CCC(=O)O)C(=O)N[C@@H](CCC(N)=O)C(=O)N[C@@H](CCC(=O)O)C(=O)N[C@@H](Cc1ccccc1)C(=O)N[C@@H](CC(C)C)C(=O)N[C@@H](CCCNC(=N)N)C(=O)N[C@@H](CCCNC(=N)N)C(N)=O [SEQ ID NO: 5 palmitoyl, WEQEFLRR] (Palmitoyl-WEQEFLRR-NH2)			24.7%	17.9%		−2.9%	−5.5%	−6.3%	−24.3%				−0.2%	10.3%	7.6%	18.0%				25.1%	% Ach release inhibition ([2]; TFA salt, 0.1 μM): 16.4%; % Ach release inhibition ([2]; TFA salt, 1 μM): 16.1%
